Source: US5932242A, “Ether lipid-containing pharmaceutical compositions and therapeutic uses thereof” (The Liposome Company, Inc., priority 1996, dated 1999)

Assays:
[1] = Monolayer mean molecular area per molecule (MMAM) measurement, Langmuir-Blodgett mini-trough; format: physicochemical; conditions: single-lipid monolayer, 23° C., 10 mM HEPES, 150 mM NaCl, pH 7.2, extrapolated to zero surface pressure
From the text: A measure of the amount of space occupied by a lipid molecule is the mean area ("MMAM") that a molecule of the lipid occupies in a monolayer formed of that lipid. MMAM values for various lipids can readily be determined by ordinarily skilled artisans given the teachings of this invention, for example, as set forth in Example 1 below. MMAM values can be determined by first forming a lipid monolayer on the surface of an aqueous medium contained within a suitable trough, by the drop-wise addition of a lipid solution to the surface of the aqueous medium. […] Surface pressures for the different surface areas are recorded, and area-vs.-pressure curves compiled. MMAM values are obtained from these curves by extrapolating the steepest portion of the curve to a lipid's surface area at zero pressure.
The mean area occupied by a lipid molecule in a monolayer formed by a combination of cone-shaped and inverted cone-shaped lipids could be calculated according to the equation A0 =X^1 ·A^1 +X^2 ·A^2 (see Ali et al., the contents of which are incorporated herein by reference), wherein "A0 " is the MMAM expected of the lipids in the two component system, X^1 and X^2 are the relative mole percentages of the lipids in the combination, and A^1 and A^2 are the measured MMAM values of the individual lipids. Accordingly, the combination of lipids in a two-component monolayer would be expected to result in a mean molecular area per lipid molecule ("MMAMexpected ") reflective of the relative proportions in which each of the constituent lipids is present in the combination. That is, calculated in accordance with the above equation, the MMAM value expected of the lipids would be additive.
The mean molecular area per molecule of formulations containing the ether lipid ET-18-OCH3 was determined using a Langmuir-Blodgett mini-trough equipped with a dual barrier mechanism and a Wilhelmy balance, all obtained from KSV Instruments (Trumbull, Conn.). ET-18-OCH3 formulations were prepared from lipid powders that were dissolved in a solvent system of hexane:ethanol 9:1. Single lipid solutions and mixtures were made to contain an overall lipid concentration of approximately 1.5 mM which was quantitated precisely by phosphate (Chen et al., 1956) and cholesterol assays (Rudel & Morris, 1973). Monolayers were formed by dropwise addition of sample on to the aqueous surface (10 mM HEPES, 150 mM NaCl buffer, pH 7.2) at the center of the trough. Sample was added until the surface pressure just started to rise above zero, at which time the exact volume of sample added was recorded. After waiting three minutes for solvent evaporation and monolayer stabilization, the surface area of the monolayer was reduced at a rate of 15 cm^2 /min, and surface pressure was recorded. The solution level was maintained 1 mm below the top edge of the trough to avoid leakage; contact was maintained with the barriers (composed of Delrin) due to their hydrophilic nature.
Pressure vs. area curves were compiled from data obtained as described above (see FIGS. 1 and 2), and MMAM values were determined by extrapolating the steepest portion of the curve to the value at zero surface pressure. […] All experiments were done at 23° C. […] MMAMs (A0) were determined for each lipid by extrapolation of the steepest portion of the curves to the value at zero surface pressure; and are as follows: ET-18-OCH3 : 72.8 Å^2; CHOL: 44.8 Å^2; DOPE: 82.3 Å^2; POPC: 82.0 Å^2; and, DOPC: 82.0 Å^2.

[2] = art knowledge; cited from earlier work
[3] = Hemolysis of washed human red blood cells (H50); format: cell-based; conditions: human, red blood cells
Method: (§1) The hemolytic activity of ET-18-OCH3 /CHOL, DOPE, POPC or DOPC liposomes, prepared as described below in Example 2, have also been examined, as described hereinbelow in Example 3. Results, presented hereinbelow in FIG. 3, are in the form of the ET-18-OCH3 concentration in the various liposomes required to achieve hemolysis of 50% of the red blood cells present in a sample (H50).
(§2) […] All liposomes were extruded, in order to assure uniform size distribution.
(§3) Hemolysis was assessed as previously described (Perkins et al., 1992). Briefly, each sample was serially diluted with buffer solution and 0.3 ml of each diluted solution was mixed with 0.3 ml of washed human red blood cells [4% in PBS (v/v)]. For controls, 0.3 ml of the red blood cell suspension was mixed with either 0.3 ml of buffer solution (negative hemolysis control) or 0.3 ml of distilled water (positive hemolysis control). Samples and standards were placed in a 37° C. incubator and agitated for 20 hours. Tubes were centrifuged at low speed (2000 g) for 10 minutes to pellet RBCs. Two hundred μl of the supernatant was removed and mixed with 1 ml of water. Hemolysis was quantitated by absorbance at 550 nm using a Shimadzu 2101 UV-Vis Scanning Spectrophotometer (Shimadzu Corp., Kyoto, Japan). One hundred percent hemolysis was defined as the maximum amount of hemolysis obtained from free ET-18-OCH3.

human red blood cells = test: Hemolysis of washed human red blood cells (H50); format: cell-based; conditions: concluded from hemolysis of 60 mole % ET-18-OCH3 /cholesterol SUVs
Method: as §1, §2, §3

SMILES	MMAM (A0) of individual lipid [1]	packing parameter [2]	HC50 at 20 h [3]	Ability to form stable liposome structures (human red blood cells)
CC(C)CCC[C@@H](C)[C@H]1CC[C@H]2[C@@H]3CC=C4C[C@@H](O)CC[C@]4(C)[C@H]3CC[C@]12C [CHOL, cholesterol]	44.8 Å^2	1.2-1.3	–	–
CCCCCCCC/C=C\CCCCCCCC(=O)OCC(COP(=O)([O-])OCC[N+](C)(C)C)OC(=O)CCCCCCC/C=C\CCCCCCCC (stereo not drawn) [DOPC, dioleoyl phosphatidylcholine]	82.0 Å^2	–	–	–
CCCCCCCC/C=C\CCCCCCCC(=O)OCC(COP(=O)(O)OCCN)OC(=O)CCCCCCC/C=C\CCCCCCCC (stereo not drawn) [DOPE, dioleoyl phosphatidylethanolamine]	82.3 Å^2	1.2-1.3	–	–
CCCCCCCCCCCCCCCCCCOC[C@H](COP(=O)([O-])OCC[N+](C)(C)C)OC [ET-18-OCH3, 1-O-octadecyl-2-O-methyl-sn-3-phosphorylcholine]	72.8 Å^2	–	16 µM	does not form stable liposome structures above a 1:1 stoichiometry
CCCCCCCC/C=C\CCCCCCCC(=O)OC(COC(=O)CCCCCCCCCCCCCCC)COP(=O)([O-])OCC[N+](C)(C)C (stereo not drawn) [POPC, palmitoyloleoyl phosphatidylcholine]	82.0 Å^2	–	–	–
